# Assay results published in patent US8916702B2 (priority 2012, dated 2014).
# Tested on: HCV pseudoparticles (genotype 1a HCV E1 and E2 envelope, H77C isolate)
# Assay: microbe, parasite or virus in culture
# Assay type: cell-based
# Conditions: Hepatitis C virus, Huh-7, 48 h, HCV pseudoparticle infection of Huh7 cells, luciferase 2 days after infection; average of duplicates
row,SMILES,EC50 [nM]
1,CCC1(CC)CC1CNC(=O)C(=O)NCC[C@H](NC(=O)c1ccc(Nc2nc(NC3(c4ccc(Cl)cc4)CC3)nc(OCC(F)(F)F)n2)cc1)C(=O)OC (stereo partly drawn) [Compound 1199],0.19
2,Cn1cncc1NC(=O)C(=O)NCC[C@H](NC(=O)c1ccc(Nc2nc(NC3(c4ccc(Cl)cc4)CC3)nc(OCC(F)(F)F)n2)cc1)C(=O)O [Compound 1267],5.26

# Same assay, conditions: Hepatitis C virus, Huh-7, 48 h, HCV pseudoparticles (genotype 1a, H77C) in Huh7 cells; average of duplicate; luciferase 2 days after infection
row,SMILES,EC50 [nM]
1,COC(=O)[C@H](CNC(=O)C(=O)Nc1ccc(C(=O)c2ccccc2)cc1)NC(=O)c1ccc(Nc2nc(NC3(c4ccc(Cl)cc4)CC3)nc(OCC(F)(F)F)n2)cc1 [Compound 3084],3.58

# Same assay, conditions: Hepatitis C virus, Huh-7, 48 h, HCV pseudoparticles, Huh7 cells, luciferase 2 days after infection; average of duplicates
row,SMILES,EC50 [nM]
1,O=C(NCC[C@H](NC(=O)c1ccc(Nc2nc(NC3(c4ccc(Cl)cc4)CC3)nc(OCC(F)(F)F)n2)cc1)C(=O)O)C(=O)Nc1cccc(OC(F)(F)F)c1 [Compound 3619],0.084

# Same assay, conditions: Hepatitis C virus, Huh-7, 48 h, read-out: Activity (EC50 class), HCV pseudoparticle infection of Huh7 cells, luciferase 2 days after infection; EC50 expressed as class A/B
row,SMILES,EC50 [nM]
1,Cn1cc(CCNC(=O)C(=O)NC[C@@H](NC(=O)c2ccc(Nc3nc(NC4(c5ccc(Cl)cc5)CC4)nc(OCC(F)(F)F)n3)cc2)C(=O)O)cn1 [Compound 1413],0.01 to 10
2,"CNC(=O)C(=O)NCC[C@H](NC(=O)c1ccc(Nc2nc(NC3(c4ccc(Cl)cc4)CC3)nc(OCC(F)(F)F)n2)cc1)C(=O)OC [Compound 1010, (S)-methyl 2-(4-(4-(1-(4-chlorophenyl)cyclopropylamino)-6-(2,2,2-trifluoroethoxy)-1,3,5-triazin-2-ylamino)benzamido)-4-(2-(methylamino)-2-oxoacetamido)butanoate]",0.01 to 10
3,COC(=O)[C@H](CNC(=O)C(=O)Nc1ccc(F)cc1)NC(=O)c1ccc(Nc2nc(NC3(c4ccc(Cl)cc4)CC3)nc(OCC(F)(F)F)n2)cc1 [Compound 1252],0.01 to 10
4,C[C@@H]1[C@H]2C[C@H](C[C@H]1NC(=O)C(=O)NC[C@H](NC(=O)c1ccc(Nc3nc(NC4(c5ccc(Cl)cc5)CC4)nc(OCC(F)(F)F)n3)cc1)C(=O)O)C2(C)C [Compound 1105],0.01 to 10
5,COC(=O)[C@H](CCNC(=O)C(=O)Nc1ccncc1)NC(=O)c1ccc(Nc2nc(NC3(c4ccc(Cl)cc4)CC3)nc(OCC(F)(F)F)n2)cc1 [Compound 1236],0.01 to 10
6,CC(C)(CNC(=O)C(=O)N1CCc2ccccc2C1)CNC(=O)c1ccc(Nc2nc(NC3(c4ccc(Cl)cc4)CC3)nc(OCC(F)(F)F)n2)cc1 [Compound 1545],0.01 to 10
7,CC(C)(CNC(=O)C(=O)Nc1ccc(-c2csnn2)cc1)CNC(=O)c1ccc(Nc2nc(NC3(c4ccc(Cl)cc4)CC3)nc(OCC(F)(F)F)n2)cc1 [Compound 1598],0.01 to 10
8,CCC1(CC)CC1CNC(=O)C(=O)NCC[C@H](NC(=O)c1ccc(Nc2nc(NC3(c4ccc(Cl)cc4)CC3)nc(OCC(F)(F)F)n2)cc1)C(=O)OC (stereo partly drawn) [Compound 1199],0.01 to 10
9,Cn1cncc1NC(=O)C(=O)NCC[C@H](NC(=O)c1ccc(Nc2nc(NC3(c4ccc(Cl)cc4)CC3)nc(OCC(F)(F)F)n2)cc1)C(=O)O [Compound 1267],0.01 to 10
10,COC(=O)[C@H](CCNC(=O)C(=O)NCC1CC[C@H]2C[C@@H]1C2(C)C)NC(=O)c1ccc(Nc2nc(NC3(c4ccc(Cl)cc4)CC3)nc(OCC(F)(F)F)n2)cc1 (stereo partly drawn) [Compound 1201],0.01 to 10
11,CCOCC1(CNC(=O)C(=O)NCC[C@@H](NC(=O)c2ccc(Nc3nc(NC4(c5ccc(Cl)cc5)CC4)nc(OCC(F)(F)F)n3)cc2)C(=O)OC)CC1 [Compound 1379],0.01 to 10
12,O=C(NCC[C@H](NC(=O)c1ccc(Nc2nc(NC3(c4ccc(Cl)cc4)CC3)nc(OCC(F)(F)F)n2)cc1)C(=O)O)C(=O)Nc1cn[nH]c1 [Compound 1266],0.01 to 10

# Same assay, conditions: Hepatitis C virus, Huh-7, 48 h, read-out: Activity (EC50 class), HCV pseudoparticles, Huh7 cells, luciferase 2 days after infection; average of duplicates
row,SMILES,EC50 [nM]
1,O=C(NCC[C@H](NC(=O)c1ccc(Nc2nc(NC3(c4ccc(Cl)cc4)CC3)nc(OCC(F)(F)F)n2)cc1)C(=O)O)C(=O)Nc1cccc(C(=O)c2ccccc2)c1 [Compound 3618],0.01 to 10
2,O=C(NC[C@H](NC(=O)c1ccc(Nc2nc(NC3(c4ccc(Cl)cc4)CC3)nc(OCC(F)(F)F)n2)cc1)C(=O)Cl)C(=O)Nc1cccc(OCc2ccccc2)c1 [Compound 3742],0.01 to 10
3,O=C(NCC[C@H](NC(=O)c1ccc(Nc2nc(NC3(c4ccc(Cl)cc4)CC3)nc(OCC(F)(F)F)n2)cc1)C(=O)O)C(=O)Nc1cccc(-c2ccncc2)c1 [Compound 3637],0.01 to 10
4,O=C(NCC[C@H](NC(=O)c1ccc(Nc2nc(NC3(c4ccc(Cl)cc4)CC3)nc(OCC(F)(F)F)n2)cc1)C(=O)O)C(=O)Nc1cccc(OC(F)(F)F)c1 [Compound 3619],0.01 to 10
5,O=C(NCC[C@H](NC(=O)c1ccc(Nc2nc(NC3(c4ccc(Cl)cc4)CC3)nc(OCC(F)(F)F)n2)cc1)C(=O)O)C(=O)Nc1cccc(CN2CCCC2)c1 [Compound 3647],0.01 to 10
6,COC(=O)[C@H](CNC(=O)C(=O)Nc1cccc(-c2ccnc(C)n2)c1)NC(=O)c1ccc(Nc2nc(NC3(c4ccc(Cl)cc4)CC3)nc(OCC(F)(F)F)n2)cc1 [Compound 3700],0.01 to 10

# Same assay, conditions: Hepatitis C virus, Huh-7, read-out: Activity (EC50 class), HCV pseudoparticles (genotype 1a, H77C) in Huh7 cells; EC50 expressed as class A/B
row,SMILES,EC50 [nM]
1,O=C(NCC[C@H](NC(=O)c1ccc(Nc2nc(NC3(c4ccc(Cl)cc4)CC3)nc(OCC(F)(F)F)n2)cc1)C(=O)O)C(=O)Nc1ccc(C2=CCC(N3CCOCC3)=N2)cc1 [Compound 3539],10 to 1000
2,COC(=O)[C@H](CNC(=O)C(=O)Nc1ccc(-c2ccno2)cc1)NC(=O)c1ccc(Nc2nc(NC3(c4ccc(Cl)cc4)CC3)nc(OCC(F)(F)F)n2)cc1 [Compound 3199],0.01 to 10
3,O=C(Nc1cc(F)cc(F)c1)C(=O)N1CCCC(CNC(=O)c2ccc(Nc3nc(NC4(c5ccc(Cl)cc5)CC4)nc(OCC(F)(F)F)n3)cc2)C1 (stereo not drawn) [Compound 3485],0.01 to 10
4,COC(=O)[C@H](CCNC(=O)C(=O)Nc1ccc(-c2csc(N3CCOCC3)n2)cc1)NC(=O)c1ccc(Nc2nc(NC3(c4ccc(Cl)cc4)CC3)nc(OCC(F)(F)F)n2)cc1 [Compound 3318],0.01 to 10
5,CC(C)(CNC(=O)c1ccc(Nc2nc(NC3(c4ccc(Cl)cc4)CC3)nc(OCC(F)(F)F)n2)cc1)NC(=O)C(=O)Nc1ccc(F)cc1F [Compound 3438],0.01 to 10
6,CC(C)(CNC(=O)C(=O)Nc1ccc2[nH]ccc2c1)CNC(=O)c1ccc(Nc2nc(NC3(c4ccc(Cl)cc4)CC3)nc(OCC(F)(F)F)n2)cc1 [Compound 3338],0.01 to 10
7,CC(C)(CNC(=O)C(=O)Nc1ccc(OC(F)(F)F)cc1)CNC(=O)c1ccc(Nc2nc(NC3(c4ccc(Cl)cc4)CC3)nc(OCC(F)(F)F)n2)cc1F [Compound 3559],0.01 to 10
8,COC(=O)[C@H](CNC(=O)C(=O)Nc1ccc(C(=O)c2ccccc2)cc1)NC(=O)c1ccc(Nc2nc(NC3(c4ccc(Cl)cc4)CC3)nc(OCC(F)(F)F)n2)cc1 [Compound 3084],0.01 to 10
9,CC(C)(CNC(=O)C(=O)NCc1ccccc1Cl)CNC(=O)c1ccc(Nc2nc(NC3(c4ccc(Cl)cc4)CC3)nc(OCC(F)(F)F)n2)cc1 [Compound 3003],0.01 to 10
10,CC(C)(CNC(=O)C(=O)Nc1cccc(C(F)(F)F)c1)CNC(=O)c1ccc(Nc2nc(NC3(c4ccc(Cl)cc4)CC3)nc(OCC(F)(F)F)n2)cc1 [Compound 3019],0.01 to 10
11,O=C(NC/C(=N/C(=O)c1ccc(Nc2nc(NC3(c4ccc(Cl)cc4)CC3)nc(OCC(F)(F)F)n2)cc1)C(=O)O)C(=O)Nc1ccc(N2CCOCC2)cc1 [Compound 3148],0.01 to 10
12,Cc1ccc(NC(=O)C(=O)NCC(C)CNC(=O)c2ccc(Nc3nc(NC4(c5ccc(Cl)cc5)CC4)nc(OCC(F)(F)F)n3)cc2)cc1Cl (stereo not drawn) [Compound 3474],0.01 to 10
13,O=C(NCCC(NC(=O)c1ccc(Nc2nc(NC3(c4ccc(Cl)cc4)CC3)nc(OCC(F)(F)F)n2)cc1)C(=O)O)C(=O)Nc1ccc(-c2cc[nH]n2)cc1 (stereo not drawn) [Compound 3531],0.01 to 10
14,C=Cc1cccc(NC(=O)C(=O)NCC[C@@H](NC(=O)c2ccc(Nc3nc(NC4(c5ccc(Cl)cc5)CC4)nc(OCC(F)(F)F)n3)cc2)C(=O)OC)c1 [Compound 3574],0.01 to 10
15,O=C(NCCC(NC(=O)c1ccc(Nc2nc(NC3(c4ccc(Cl)cc4)CC3)nc(OCC(F)(F)F)n2)cc1)C(=O)O)C(=O)Nc1ccc(Cn2cncn2)cc1 (stereo not drawn) [Compound 3520],0.01 to 10
16,CNC(=O)CCc1cccc(NC(=O)C(=O)NCC(C)(C)CNC(=O)c2ccc(Nc3nc(NC4(c5ccc(Cl)cc5)CC4)nc(OCC(F)(F)F)n3)cc2)c1 [Compound 3037],0.01 to 10
17,CCc1ccc(NC(=O)C(=O)NCC[C@H](NC(=O)c2ccc(Nc3nc(NC4(c5ccc(Cl)cc5)CC4)nc(OCC(F)(F)F)n3)cc2)C(=O)O)cc1 [Compound 3551],0.01 to 10
